Patent EP0237495A2, “Halogenides of the ester of 2,N,N,N-dimethyl-alkyl-amino-ethanol with substituted acetic acid and pharmaceutical compositions having antiinflammatory and antiseptic activities containing same” (Sigma-Tau Industrie Farmaceutiche Riunite S.p.A., priority 1986, dated 1987)

What was measured:
Klebsiella pneumoniae = assay type: cell-based; conditions: ATCC10031; Klebsiella pneumoniae ATCC 10031
Cryptococcus neoformans = assay type: cell-based; conditions: Cryptococcus neoformans ISM 7182
Escherichia coli = assay type: cell-based; conditions: Escherichia coli K 12
Rhodotorula rubra = assay type: cell-based; conditions: Rhodotorula rubra ISM 7198
[1] = tested on: Staphylococcus epidermidis; assay type: cell-based; conditions: Staphylococcus epidermidis BB 0223
Pseudomonas maltophilia = assay type: cell-based; conditions: Stenotrophomonas maltophilia, ATCC13637; Pseudomonas maltophilia ATCC 13637
[2] = tested on: Bordetella bronchiseptica; assay type: cell-based; conditions: ATCC4617; Bordetella bronchiseptica ATCC 4617
Candida albicans = assay type: cell-based; conditions: ATCC10231; Candida albicans ATCC 10231
Candida utilis = assay type: cell-based; conditions: Williopsis jadinii; Candida utilis BB 0173
Bacillus subtilis = assay type: cell-based; conditions: ATCC6633; Bacillus subtilis ATCC 6633
Penicillium funicolosum = assay type: cell-based; conditions: ATCC9644; Penicillium funicolosum ATCC 9644
rat peritoneum = conditions: in vivo, ip
rat subcutaneous tissue = test: Topical tolerability in rat subcutaneous tissue; assay type: in vivo; parameters: key: 0: no response; 1: moderate response; 2: sharp response; 3: marked response; 4: extreme response; conditions: 1 ml of 1% suspension s.c., arbitrary scale 0-4; for Irritation degree 4h: 4 hours after administration; for Irritation degree 24h: 24 hours after administration
Method: The test was carried out on rats using two different test procedures. The products were tested at 1% concentration. According to the first procedure, 1 ml of the test suspensions were injected subcutaneously (s.c.) in the side of animals. 4 or 24 hours following administration, the animals were sacrificed, and the degree of subcutaneous irriration estimated.
The presence of erythema, oedema and necrosis was assessed based on the following arbitrary rating scale • - 0 : no response • - 1 : moderate response • - 2 : sharp response • - 3 : marked response • - 4 : extreme response

Saccharomyces cerevisiae = assay type: cell-based; conditions: Saccharomyces cerevisiae BB 0193
Staphylococcus aureus = assay type: cell-based; conditions: ATCC6538P; Staphylococcus aureus ATCC 6538P
mouse = test: in vivo; conditions: ip
Method: (§1) The test was carried out in the mouse. The products were administered by intraperitoneal injection. The death rate was assessed daily over a period of 14 days following treatment.

in vivo = conditions: mouse, ip
Method: as §1

Sarcina lutea = assay type: cell-based; conditions: Micrococcus luteus, ATCC9341; Sarcina lutea ATCC 9341
Streptococcus pyogenes = assay type: cell-based; conditions: ATCC12380; Streptococcus pyogenes ATCC 12380
Bacillus antracis = assay type: cell-based
Streptococcus faecalis = assay type: cell-based; conditions: Enterococcus faecalis, ATCC8043; Streptococcus faecalis ATCC 8043
Aspergillus niger = assay type: cell-based; conditions: ATCC9642; Aspergillus niger ATCC 9642
Proteus vulgaris = assay type: cell-based; conditions: ATCC6897; Proteus vulgaris ATCC 6897
Pseudomonas aeruginosa = assay type: cell-based; conditions: ATCC14502; Pseudomonas aeruginosa ATCC 14502
[3] = tested on: acetic acid-induced peritoneal exudation; test: Antiexudative activity (acetic acid-induced peritoneal exudation); assay type: in vivo; conditions: rat, 1 hour before i.p. 1% acetic acid
Method: The test was carried out in the rat. The products were orally administered 1 hour before the intraperitoneal injection of 0.5 ml of 1% acetic acid. Along with the irritant agent, 1 ml of 0,1% Blue Evans was injected i.v. to the rats. The same procedure as that described above was followed for collecting the peritoneal exudate and rating the irritation degree.

Row | Compound | MIC (Klebsiella pneumoniae) [µg/mL] | MIC (Cryptococcus neoformans) [µg/mL] | MIC (Escherichia coli) [µg/mL] | MIC (Rhodotorula rubra) [µg/mL] | MIC [1] [µg/mL] | MIC (Pseudomonas maltophilia) [µg/mL] | MIC [2] [µg/mL] | MIC (Candida albicans) [µg/mL] | MIC (Candida utilis) [µg/mL] | MIC (Bacillus subtilis) [µg/mL] | MIC (Penicillium funicolosum) [µg/mL] | MIC (Saccharomyces cerevisiae) [µg/mL] | MIC (Staphylococcus aureus) [µg/mL] | MIC (Sarcina lutea) [µg/mL] | MIC (Streptococcus pyogenes) [µg/mL] | MIC (Bacillus antracis) [µg/mL] | MIC (Streptococcus faecalis) [µg/mL] | MIC (Aspergillus niger) [µg/mL] | MIC (Proteus vulgaris) [µg/mL] | MIC (Pseudomonas aeruginosa) [µg/mL] | also measured
1 | CCCCCCCC[N+](C)(C)CCOC(=O)C(C)c1ccc(CC(C)C)cc1 (stereo not drawn) [AF 150, bromide of the ester of 2-N,N,N-dimethyl-octyl-amino-ethanol with p-isobutylphenyl-alpha-methylacetic acid] | 10 | ≤ 5 | 80 | ≤ 5 | 10 | 40 | 10 | ≤ 5 | ≤ 5 | 10 | 10 | ≤ 5 | ≤ 5 | ≤ 5 | 20 | 10 | 20 | 10 | 10 | 10 | Percent increase in response with respect to controls (rat peritoneum): 185%; Irritation degree 4h (rat subcutaneous tissue): 2; Irritation degree 24h (rat subcutaneous tissue): 1; Mortality (mouse; 7.8 mg/kg): 0/6; Mortality (mouse; 31.2 mg/kg): 6/6; Mortality (mouse; 62.5 mg/kg): 6/6; Mortality (mouse; 125 mg/kg): 5/6; mortality at 336 h (in vivo; 7.8 mg/kg): 0%; mortality at 336 h (in vivo; 15.6 mg/kg): 0%; mortality at 336 h (in vivo; 31.2 mg/kg): 100%; mortality at 336 h (in vivo; 62.5 mg/kg): 100%; mortality at 336 h (in vivo; 125 mg/kg): 83.3%; % Inhibition with respect to controls ([3]; 200 mg/kg orally): 37%; % Inhibition with respect to controls ([3]; 400 mg/kg orally): 51%
2 | CCCCCCCCCC[N+](C)(C)CCOC(=O)Cc1c(C)n(C(=O)c2ccc(Cl)cc2)c2ccc(OC)cc12 [RE 8, iodide of the ester of 2-N,N,N-dimethyl-decyl --amino-ethanol with 1-(p-chlorobenzoyl)-2-methyl-5-methoxy-3-indolyl-acetic acid] | > 80 | ≤ 5 | > 80 | ≤ 5 | ≤ 5 | 80 | 80 | ≤ 5 | ≤ 5 | 10 | ≤ 5 | ≤ 5 | ≤ 5 | 10 | 10 | 10 | 10 | ≤ 5 | 80 | 80 | Percent increase in response with respect to controls (rat peritoneum): 97%; Irritation degree 4h (rat subcutaneous tissue): 2; Irritation degree 24h (rat subcutaneous tissue): 2; Mortality (mouse; 7.8 mg/kg): 0/6; Mortality (mouse; 31.2 mg/kg): 6/6; Mortality (mouse; 62.5 mg/kg): 6/6; Mortality (mouse; 125 mg/kg): 5/6; Mortality (mouse; 250 mg/kg): 6/6; mortality at 336 h (in vivo; 7.8 mg/kg): 0%; mortality at 336 h (in vivo; 15.6 mg/kg): 0%; mortality at 336 h (in vivo; 31.2 mg/kg): 100%; mortality at 336 h (in vivo; 62.5 mg/kg): 100%; mortality at 336 h (in vivo; 125 mg/kg): 83.3%; mortality at 336 h (in vivo; 250 mg/kg): 100%; % Inhibition with respect to controls ([3]; 200 mg/kg orally): 31%; % Inhibition with respect to controls ([3]; 400 mg/kg orally): 46%
3 | N=C(NCCCCCCNC(=N)NC(=N)Nc1ccc(Cl)cc1)NC(=N)Nc1ccc(Cl)cc1 [Chlorexidine, Chlorexidine gluconate, reference compound] | 40 | 40 | 10 | 40 | 10 | 80 | 40 | 20 | 40 | ≤ 5 | > 80 | 80 | ≤ 5 | 20 | 10 | 20 | 20 | 80 | 40 | 80 | 
4 | CC(C)Cc1ccc(C(C)C(=O)O)cc1 (stereo not drawn) [ibuprofen, Ibuprofen, reference compound] |  |  |  |  |  |  |  |  |  |  |  |  |  |  |  |  |  |  |  |  | % Inhibition with respect to controls ([3]; 200 mg/kg orally): 60%; % Inhibition with respect to controls ([3]; 400 mg/kg orally): 58%
5 | CCCCCCCCCCCC[N+](C)(C)CCOC(=O)Cc1c(C)n(C(=O)c2ccc(Cl)cc2)c2ccc(OC)cc12 [RE 9, iodide of the ester of 2-N,N,N-dimethyl-dodecyl, amino-ethanol with 1-(p-chlorobenzoyl)-2-methyl-5-methoxy-3-indolyl-acetic acid] | 80 | ≤ 5 | 80 | ≤ 5 | ≤ 5 | 80 | 80 | ≤ 5 | ≤ 5 | ≤ 5 | ≤ 5 | ≤ 5 | ≤ 5 | ≤ 5 | ≤ 5 | ≤ 5 | ≤ 5 | ≤ 5 | 20 | 80 | Percent increase in response with respect to controls (rat peritoneum): 95%; Irritation degree 4h (rat subcutaneous tissue): 2; Irritation degree 24h (rat subcutaneous tissue): 2; Mortality (mouse; 62.5 mg/kg): 5/6; Mortality (mouse; 125 mg/kg): 6/6; Mortality (mouse; 250 mg/kg): 5/6; Mortality (mouse; 500 mg/kg): 6/6; mortality at 336 h (in vivo; 31.2 mg/kg): 0%; mortality at 336 h (in vivo; 62.5 mg/kg): 83.3%; mortality at 336 h (in vivo; 125 mg/kg): 100%; mortality at 336 h (in vivo; 250 mg/kg): 83.3%; mortality at 336 h (in vivo; 500 mg/kg): 100%; % Inhibition with respect to controls ([3]; 200 mg/kg orally): 35%; % Inhibition with respect to controls ([3]; 400 mg/kg orally): 40%
